Source: patent US20220409510A1, “Polypeptides And Methods For Improving Skin Conditions” (Interk Peptide Therapeutics Limited, priority 2018, published 2022)

Test system: primary keratinocytes
Test: ATP levels in primary keratinocytes exposed to ssUV (CellTiter-Glo 2.0 Assay)
Format: cell-based
Settings: 1.5 hours after UVR, FIG. 4
Procedure: The influence of the polypeptide IK34720 (SEQ ID NO: 3) on intracellular ATP following UV exposure was assessed using the following protocol.
Primary keratinocytes were harvested as described above in Example 2 and were either exposed to ssUV-irradiation (UVR), as described above in Example 2 or not irradiated (SHAM), in the presence or absence of Calcitriol (positive control) or polypeptide IK34720 (SEQ ID NO: 3; RSKAKNPLYRRRRRRRRR), at the concentrations described in Example 2.
ATP levels were determined 1.5 hours after UVR using the CellTiter-Glo® 2.0 Assay (Promega, Wis., USA) as described previously (Rybchyn et al., vide supra, 2017). All data in FIG. 4 is shown as mean±SD. *p<0.05, **p<0.01. Cells were prepared and irradiated as described above.

Question: Which ATP levels does the source give for “RSKAKNPLYRRRRRRRRR [IK34720, 18-residue polypeptide: … with a C-terminal polyarginine region of 8 arginines]” here?
Answer: enhanced the ATP levels
